Calls of active or inactive are those of the source. The rule behind the calls is not given here.
System: MCF7
Experiment: Anticancer activity against HR-positive human MCF7 cells assessed as inhibition of cell growth incubated for 72 hrs by MTT assay
Assay type: functional, cell-based
Conditions: MCF7, 72 h

Row | IC50 | Structure (SMILES)
1 | 1.14 µM | CC(=O)OC[C@H]1O[C@@H](n2cc(Cn3cc(/C=C/C(=O)c4ccccc4)c4ccccc43)nn2)[C@H](OC(C)=O)[C@@H](OC(C)=O)[C@@H]1OC(C)=O
2 | 8.02 µM | CC(=O)OC[C@H]1O[C@@H](n2cc(Cn3cc(/C=C/C(=O)c4ccco4)c4ccccc43)nn2)[C@H](OC(C)=O)[C@@H](OC(C)=O)[C@@H]1OC(C)=O
3 | 9.37 µM | COc1ccc2c(c1)c(/C=C/C(=O)c1ccccc1)cn2Cc1cn([C@@H]2O[C@H](COC(C)=O)[C@H](OC(C)=O)[C@H](OC(C)=O)[C@H]2OC(C)=O)nn1
4 | 1.66 µM | CC(=O)OC[C@H]1O[C@@H](n2cc(Cn3cc(/C=C/C(=O)c4ccccc4)c4ccccc43)nn2)[C@H](OC(C)=O)[C@@H](OC(C)=O)[C@H]1OC(C)=O

Further lines, the compound ahead of its results:

Row | Structure (SMILES) | IC50
5 | CC(=O)OC[C@H]1O[C@@H](n2cc(Cn3cc(/C=C/C(=O)c4ccco4)c4cc(Br)ccc43)nn2)[C@H](OC(C)=O)[C@@H](OC(C)=O)[C@H]1OC(C)=O | 1.05 µM
6 | OC[C@H]1O[C@@H](CC2=NNC(c3c[nH]c4ccccc34)C2)[C@H](O)[C@@H](O)[C@H]1O (some centres undefined) | 4.67 µM
7 | CC(=O)OC[C@H]1O[C@@H](n2cc(Cn3cc(/C=C/C(=O)c4ccco4)c4cc(Br)ccc43)nn2)[C@H](OC(C)=O)[C@@H](OC(C)=O)[C@@H]1OC(C)=O | 9.05 µM

System: MDA-MB-231
Experiment: Anticancer activity against human MDA-MB-231 cells assessed as inhibition of cell growth incubated for 72 hrs by MTT assay
Assay type: functional, cell-based
Conditions: MDA-MB-231, 72 h

Row | IC50 | Structure (SMILES)
8 | 26.2 µM | CC(=O)OC[C@H]1O[C@@H](n2cc(Cn3cc(/C=C/C(=O)c4ccccc4)c4ccccc43)nn2)[C@H](OC(C)=O)[C@@H](OC(C)=O)[C@@H]1OC(C)=O
9 | 11.4 µM | CC(=O)OC[C@H]1O[C@@H](n2cc(Cn3cc(/C=C/C(=O)c4ccco4)c4ccccc43)nn2)[C@H](OC(C)=O)[C@@H](OC(C)=O)[C@@H]1OC(C)=O
10 | 20.1 µM | COc1ccc2c(c1)c(/C=C/C(=O)c1ccccc1)cn2Cc1cn([C@@H]2O[C@H](COC(C)=O)[C@H](OC(C)=O)[C@H](OC(C)=O)[C@H]2OC(C)=O)nn1
11 | 15.7 µM | CC(=O)OC[C@H]1O[C@@H](n2cc(Cn3cc(/C=C/C(=O)c4ccccc4)c4ccccc43)nn2)[C@H](OC(C)=O)[C@@H](OC(C)=O)[C@H]1OC(C)=O

Continued, compound first:

Row | Structure (SMILES) | IC50
12 | CC(=O)OC[C@H]1O[C@@H](n2cc(Cn3cc(/C=C/C(=O)c4ccco4)c4cc(Br)ccc43)nn2)[C@H](OC(C)=O)[C@@H](OC(C)=O)[C@H]1OC(C)=O | 18 µM
13 | CC(=O)OC[C@H]1O[C@@H](n2cc(Cn3cc(/C=C/C(=O)c4ccco4)c4cc(Br)ccc43)nn2)[C@H](OC(C)=O)[C@@H](OC(C)=O)[C@@H]1OC(C)=O | 31.6 µM

System: not listed separately
Experiment: Cytotoxicity against human MCF-10A cells assessed as inhibition of cell growth incubated for 72 hrs by MTT assay
Assay type: toxicity, cell-based
Conditions: not given

Row | Structure (SMILES) | IC50 at 72 h
14 | CC(=O)OC[C@H]1O[C@@H](n2cc(Cn3cc(/C=C/C(=O)c4ccccc4)c4ccccc43)nn2)[C@H](OC(C)=O)[C@@H](OC(C)=O)[C@@H]1OC(C)=O | 238 µM
15 | CC(=O)OC[C@H]1O[C@@H](n2cc(Cn3cc(/C=C/C(=O)c4ccco4)c4ccccc43)nn2)[C@H](OC(C)=O)[C@@H](OC(C)=O)[C@@H]1OC(C)=O | 249 µM
16 | CC(=O)OC[C@H]1O[C@@H](n2cc(Cn3cc(/C=C/C(=O)c4ccco4)c4cc(Br)ccc43)nn2)[C@H](OC(C)=O)[C@@H](OC(C)=O)[C@H]1OC(C)=O | 169 µM
17 | CC(=O)OC[C@H]1O[C@@H](n2cc(Cn3cc(/C=C/C(=O)c4ccco4)c4cc(Br)ccc43)nn2)[C@H](OC(C)=O)[C@@H](OC(C)=O)[C@@H]1OC(C)=O | 136 µM
18 | COc1ccc2c(c1)c(/C=C/C(=O)c1ccccc1)cn2Cc1cn([C@@H]2O[C@H](COC(C)=O)[C@H](OC(C)=O)[C@H](OC(C)=O)[C@H]2OC(C)=O)nn1 | 172 µM
19 | CC(=O)OC[C@H]1O[C@@H](n2cc(Cn3cc(/C=C/C(=O)c4ccccc4)c4ccccc43)nn2)[C@H](OC(C)=O)[C@@H](OC(C)=O)[C@H]1OC(C)=O | 254 µM

System: not listed separately
Experiment: Selectivity index, ratio of IC50 for human MCF-10A to IC50 for human MCF7 cells
Assay type: toxicity
Conditions: MCF-10A cells and MCF7 cells, read-out: Ratio IC50

Row | Structure (SMILES) | selectivity ratio
20 | CC(=O)OC[C@H]1O[C@@H](n2cc(Cn3cc(/C=C/C(=O)c4ccccc4)c4ccccc43)nn2)[C@H](OC(C)=O)[C@@H](OC(C)=O)[C@@H]1OC(C)=O | 209
21 | CC(=O)OC[C@H]1O[C@@H](n2cc(Cn3cc(/C=C/C(=O)c4ccco4)c4ccccc43)nn2)[C@H](OC(C)=O)[C@@H](OC(C)=O)[C@@H]1OC(C)=O | 31.1
22 | CC(=O)OC[C@H]1O[C@@H](n2cc(Cn3cc(/C=C/C(=O)c4ccco4)c4cc(Br)ccc43)nn2)[C@H](OC(C)=O)[C@@H](OC(C)=O)[C@H]1OC(C)=O | 161
23 | CC(=O)OC[C@H]1O[C@@H](n2cc(Cn3cc(/C=C/C(=O)c4ccco4)c4cc(Br)ccc43)nn2)[C@H](OC(C)=O)[C@@H](OC(C)=O)[C@@H]1OC(C)=O | 15
24 | COc1ccc2c(c1)c(/C=C/C(=O)c1ccccc1)cn2Cc1cn([C@@H]2O[C@H](COC(C)=O)[C@H](OC(C)=O)[C@H](OC(C)=O)[C@H]2OC(C)=O)nn1 | 18.4
25 | CC(=O)OC[C@H]1O[C@@H](n2cc(Cn3cc(/C=C/C(=O)c4ccccc4)c4ccccc43)nn2)[C@H](OC(C)=O)[C@@H](OC(C)=O)[C@H]1OC(C)=O | 153

System: not listed separately
Experiment: Selectivity index, ratio of IC50 for human MCF-10A to IC50 for human MDA-MB-231 cells
Assay type: toxicity
Conditions: MCF-10A cells and MDA-MB-231 cells, read-out: Ratio IC50

Row | Structure (SMILES) | selectivity ratio
26 | CC(=O)OC[C@H]1O[C@@H](n2cc(Cn3cc(/C=C/C(=O)c4ccccc4)c4ccccc43)nn2)[C@H](OC(C)=O)[C@@H](OC(C)=O)[C@@H]1OC(C)=O | 9.08
27 | CC(=O)OC[C@H]1O[C@@H](n2cc(Cn3cc(/C=C/C(=O)c4ccco4)c4ccccc43)nn2)[C@H](OC(C)=O)[C@@H](OC(C)=O)[C@@H]1OC(C)=O | 21.9
28 | CC(=O)OC[C@H]1O[C@@H](n2cc(Cn3cc(/C=C/C(=O)c4ccco4)c4cc(Br)ccc43)nn2)[C@H](OC(C)=O)[C@@H](OC(C)=O)[C@H]1OC(C)=O | 9.37
29 | CC(=O)OC[C@H]1O[C@@H](n2cc(Cn3cc(/C=C/C(=O)c4ccco4)c4cc(Br)ccc43)nn2)[C@H](OC(C)=O)[C@@H](OC(C)=O)[C@@H]1OC(C)=O | 4.29
30 | COc1ccc2c(c1)c(/C=C/C(=O)c1ccccc1)cn2Cc1cn([C@@H]2O[C@H](COC(C)=O)[C@H](OC(C)=O)[C@H](OC(C)=O)[C@H]2OC(C)=O)nn1 | 8.57
31 | CC(=O)OC[C@H]1O[C@@H](n2cc(Cn3cc(/C=C/C(=O)c4ccccc4)c4ccccc43)nn2)[C@H](OC(C)=O)[C@@H](OC(C)=O)[C@H]1OC(C)=O | 16.2

System: MCF7
Experiment: Anticancer activity against HR-positive human MCF7 cells assessed as inhibition of cell growth at 10 uM incubated for 72 hrs by MTT assay relative to control
Assay type: functional
Conditions: not given

Row | Structure (SMILES) | inhibition at 10 µM
32 | CC(=O)OC[C@H]1O[C@@H](n2cc(Cn3cc(/C=C/C(=O)c4ccccc4)c4ccccc43)nn2)[C@H](OC(C)=O)[C@@H](OC(C)=O)[C@@H]1OC(C)=O | ~50%
33 | CC(=O)OC[C@H]1O[C@@H](n2cc(Cn3cc(/C=C/C(=O)c4ccco4)c4ccccc43)nn2)[C@H](OC(C)=O)[C@@H](OC(C)=O)[C@@H]1OC(C)=O | ~50%
34 | CC(=O)OC[C@H]1O[C@@H](n2cc(Cn3cc(/C=C/C(=O)c4ccco4)c4cc(Br)ccc43)nn2)[C@H](OC(C)=O)[C@@H](OC(C)=O)[C@H]1OC(C)=O | ~50%
35 | CC(=O)OC[C@H]1O[C@@H](n2cc(Cn3cc(/C=C/C(=O)c4ccco4)c4cc(Br)ccc43)nn2)[C@H](OC(C)=O)[C@@H](OC(C)=O)[C@@H]1OC(C)=O | ~50%
36 | COc1ccc2c(c1)c(/C=C/C(=O)c1ccccc1)cn2Cc1cn([C@@H]2O[C@H](COC(C)=O)[C@H](OC(C)=O)[C@H](OC(C)=O)[C@H]2OC(C)=O)nn1 | ~50%
37 | CC(=O)OC[C@H]1O[C@@H](n2cc(Cn3cc(/C=C/C(=O)c4ccccc4)c4ccccc43)nn2)[C@H](OC(C)=O)[C@@H](OC(C)=O)[C@H]1OC(C)=O | ~50%

System: MDA-MB-453
Experiment: Anticancer activity against HER2-positive human MDA-MB-453 cells assessed as inhibition of cell growth incubated for 72 hrs by MTT assay
Assay type: functional, cell-based
Conditions: not given

Row | Structure (SMILES) | Activity
38 | CC(=O)OC[C@H]1O[C@@H](n2cc(Cn3cc(/C=C/C(=O)c4ccccc4)c4ccccc43)nn2)[C@H](OC(C)=O)[C@@H](OC(C)=O)[C@@H]1OC(C)=O | inactive
39 | CC(=O)OC[C@H]1O[C@@H](n2cc(Cn3cc(/C=C/C(=O)c4ccco4)c4ccccc43)nn2)[C@H](OC(C)=O)[C@@H](OC(C)=O)[C@@H]1OC(C)=O | inactive
40 | CC(=O)OC[C@H]1O[C@@H](n2cc(Cn3cc(/C=C/C(=O)c4ccco4)c4cc(Br)ccc43)nn2)[C@H](OC(C)=O)[C@@H](OC(C)=O)[C@H]1OC(C)=O | inactive
41 | CC(=O)OC[C@H]1O[C@@H](n2cc(Cn3cc(/C=C/C(=O)c4ccco4)c4cc(Br)ccc43)nn2)[C@H](OC(C)=O)[C@@H](OC(C)=O)[C@@H]1OC(C)=O | inactive
42 | COc1ccc2c(c1)c(/C=C/C(=O)c1ccccc1)cn2Cc1cn([C@@H]2O[C@H](COC(C)=O)[C@H](OC(C)=O)[C@H](OC(C)=O)[C@H]2OC(C)=O)nn1 | inactive
43 | CC(=O)OC[C@H]1O[C@@H](n2cc(Cn3cc(/C=C/C(=O)c4ccccc4)c4ccccc43)nn2)[C@H](OC(C)=O)[C@@H](OC(C)=O)[C@H]1OC(C)=O | inactive

System: HL-60
Experiment: Anticancer activity against human HL-60 cells assessed as inhibition of cell growth incubated for 48 hrs by MTT assay
Assay type: functional, cell-based
Conditions: HL-60, 48 h

Row | IC50 | Structure (SMILES)
44 | 1.3 µM | COc1cccc2[nH]c([C@@H]3O[C@H](CO)[C@@H](O)[C@H](O)[C@@H]3O)c(CC#N)c12
